Test results published in patent US20260007681A1, “INDOLE DERIVATIVES AS ESTROGEN RECEPTOR DEGRADERS” (REGENTS OF THE UNIVERSITY OF MICHIGAN, priority 2022, published 2026).

target: ER (Homo sapiens (Human), UniProt P03372); experiment: Western blot analysis (Compounds B1-B278); format: cell-based; conditions: ER degradation by traditional Western blot; DC50 classes
How it was run: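 Compound-treated cells were lysed in RIPA buffer (Tris.HCl pH 7.6, 1% NP-40, deoxycholate, 0.1% SDS) with protease inhibitors; equal protein was resolved on 10% SDS-PAGE, transferred to PVDF and immunoblotted. Band intensities were quantified and normalized to GAPDH.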

ER, sequence (P03372 whole entry): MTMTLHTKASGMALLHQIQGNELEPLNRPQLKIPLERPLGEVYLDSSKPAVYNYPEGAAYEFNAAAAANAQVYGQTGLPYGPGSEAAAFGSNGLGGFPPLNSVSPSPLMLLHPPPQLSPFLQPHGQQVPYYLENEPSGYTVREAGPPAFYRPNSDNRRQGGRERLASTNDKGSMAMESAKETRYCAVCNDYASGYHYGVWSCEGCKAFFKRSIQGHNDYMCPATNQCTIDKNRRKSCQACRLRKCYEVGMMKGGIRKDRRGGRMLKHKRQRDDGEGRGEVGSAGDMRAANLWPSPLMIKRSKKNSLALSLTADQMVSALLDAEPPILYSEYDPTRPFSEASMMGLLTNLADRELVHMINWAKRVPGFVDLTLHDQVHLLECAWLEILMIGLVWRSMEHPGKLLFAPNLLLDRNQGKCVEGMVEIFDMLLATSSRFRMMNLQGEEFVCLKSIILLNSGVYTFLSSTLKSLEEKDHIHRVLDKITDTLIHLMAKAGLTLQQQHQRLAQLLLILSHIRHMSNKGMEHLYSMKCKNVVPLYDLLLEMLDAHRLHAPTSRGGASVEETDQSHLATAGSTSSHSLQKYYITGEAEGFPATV

| Compound | Traditional Western Degradation Potency |
| --- | --- |
| C[C@@H]1Cc2c([nH]c3ccccc23)[C@@H](c2cnc(N3CCC4(CCN(C(=O)CN5Cc6cc7c(cc6C5)C(=O)N(C5CCC(=O)NC5=O)C7=O)CC4)CC3)nc2)N1CC(F)F (stereo partly drawn) [Compound B220, 6-(2-(9-(5-((1R,3R)-2-(2,2-difluoroethyl)-3-methyl-2,3,4,9-tetrahydro-1H-pyrido[3,4-b]indol-1-yl)pyrimidin-2-yl)-3,9-diazaspiro[5.5]undecan-3-yl)-2-oxoethyl)-2-(2,6-dioxopiperidin-3-yl)-6,7-dihydropyrrolo[3,4-f]isoindole-1,3(2H,5H)-dione] | A (“A”: <10 nM) |
| C[C@@H]1Cc2c([nH]c3ccccc23)[C@@H](c2ccc(C3CCC4(CC3)CCN(C(=O)CN3Cc5cc6c(cc5C3)C(=O)N(C3CCC(=O)NC3=O)C6=O)CC4)cc2F)N1CC(F)F (stereo partly drawn) [Compound B243, 6-(2-(9-(4-((1R,3R)-2-(2,2-difluoroethyl)-3-methyl-2,3,4,9-tetrahydro-1H-pyrido[3,4-b]indol-1-yl)-3-fluorophenyl)-3-azaspiro[5.5]undecan-3-yl)-2-oxoethyl)-2-(2,6-dioxopiperidin-3-yl)-6,7-dihydropyrrolo[3,4-f]isoindole-1,3(2H,5H)-dione] | C (“C”: >100 nM) |
| C[C@@H]1Cc2c([nH]c3ccccc23)[C@@H](c2c(F)cc(N3CCC4(CCN(CC(=O)N5Cc6cc7c(cc6C5)C(=O)N(C5CCC(=O)NC5=O)C7=O)CC4)C3)cc2F)N1CC(F)F (stereo partly drawn) [Compound B47, 6-(2-(2-(4-((1R,3R)-2-(2,2-difluoroethyl)-3-methyl-2,3,4,9-tetrahydro-1H-pyrido[3,4-b]indol-1-yl)-3,5-difluorophenyl)-2,8-diazaspiro[4.5]decan-8-yl)acetyl)-2-(2,6-dioxopiperidin-3-yl)-6,7-dihydropyrrolo[3,4-f]isoindole-1,3(2H,5H)-dione] | A (“A”: <10 nM) |
| C[C@@H]1Cc2c([nH]c3ccccc23)[C@@H](c2c(F)cc(N3CC4(CN(CC(=O)N5Cc6cc7c(cc6C5)C(=O)N(C5CCC(=O)NC5=O)C7)C4)C3)cc2F)N1CC(F)F (stereo partly drawn) [Compound B8, 3-(6-(2-(6-(4-((1R,3R)-2-(2,2-difluoroethyl)-3-methyl-2,3,4,9-tetrahydro-1H-pyrido[3,4-b]indol-1-yl)-3,5-difluorophenyl)-2,6-diazaspiro[3.3]heptan-2-yl)acetyl)-1-oxo-3,5,6,7-tetrahydropyrrolo[3,4-f]isoindol-2(1H)-yl)piperidine-2,6-dione] | A (“A”: <10 nM) |
| C[C@@H]1Cc2c([nH]c3ccccc23)[C@@H](c2c(F)cc(N3CCC(N4Cc5cc6c(cc5C4)C(=O)N(C4CCC(=O)NC4=O)C6=O)CC3)cc2F)N1CC(F)F (stereo partly drawn) [Compound B31, 6-(1-(4-((1R,3R)-2-(2,2-difluoroethyl)-3-methyl-2,3,4,9-tetrahydro-1H-pyrido[3,4-b]indol-1-yl)-3,5-difluorophenyl)piperidin-4-yl)-2-(2,6-dioxopiperidin-3-yl)-6,7-dihydropyrrolo[3,4-f]isoindole-1,3(2H,5H)-dione] | C (“C”: >100 nM) |
| C[C@@H]1Cc2c([nH]c3ccccc23)[C@@H](c2c(F)cc(N3CCC(N4CCC(CN5Cc6cc7c(cc6C5)C(=O)N(C5CCC(=O)NC5=O)C7=O)CC4)C3)cc2F)N1CC(F)F (stereo partly drawn) [Compound B64, 6-((1-(1-(4-((1R,3R)-2-(2,2-difluoroethyl)-3-methyl-2,3,4,9-tetrahydro-1H-pyrido[3,4-b]indol-1-yl)-3,5-difluorophenyl)pyrrolidin-3-yl)piperidin-4-yl)methyl)-2-(2,6-dioxopiperidin-3-yl)-6,7-dihydropyrrolo[3,4-f]isoindole-1,3(2H,5H)-dione] | C (“C”: >100 nM) |
| C[C@@H]1Cc2c([nH]c3ccccc23)[C@@H](c2c(F)cc(C3CCC(C(=O)N4CCC(CN5Cc6cc7c(cc6C5)C(=O)N(C5CCC(=O)NC5=O)C7=O)CC4)CC3)cc2F)N1CC(F)F (stereo partly drawn) [Compound B79, 6-((1-(4-(4-((1R,3R)-2-(2,2-difluoroethyl)-3-methyl-2,3,4,9-tetrahydro-1H-pyrido[3,4-b]indol-1-yl)-3,5-difluorophenyl)cyclohexane-1-carbonyl)piperidin-4-yl)methyl)-2-(2,6-dioxopiperidin-3-yl)-6,7-dihydropyrrolo[3,4-f]isoindole-1,3(2H,5H)-dione] | C (“C”: >100 nM) |

Continued, values first:

| Traditional Western Degradation Potency | Compound |
| --- | --- |
| C (“C”: >100 nM) | C[C@@H]1Cc2c([nH]c3ccccc23)[C@@H](c2c(F)cc(N3CCC4(CCN(CC5Cc6cc7c(cc6C5)C(=O)N(C5CCC(=O)NC5=O)C7=O)CC4)CC3)cc2F)N1CC(F)(F)F (stereo partly drawn) [Compound B204, 6-((9-(3,5-difluoro-4-((1R,3R)-3-methyl-2-(2,2,2-trifluoroethyl)-2,3,4,9-tetrahydro-1H-pyrido[3,4-b]indol-1-yl)phenyl)-3,9-diazaspiro[5.5]undecan-3-yl)methyl)-2-(2,6-dioxopiperidin-3-yl)-6,7-dihydrocyclopenta[f]isoindole-1,3(2H,5H)-dione] |
| B (“B”: 10-100 nM) | C[C@@H]1Cc2c([nH]c3ccccc23)[C@@H](c2c(F)cc(N3CCC(CN4CCC5(CCC(N6Cc7cc8c(cc7C6)C(=O)N(C6CCC(=O)NC6=O)C8=O)C5)CC4)CC3)cc2F)N1CC(F)F (stereo partly drawn) [Compound B70, 6-(8-((1-(4-((1R,3R)-2-(2,2-difluoroethyl)-3-methyl-2,3,4,9-tetrahydro-1H-pyrido[3,4-b]indol-1-yl)-3,5-difluorophenyl)piperidin-4-yl)methyl)-8-azaspiro[4.5]decan-2-yl)-2-(2,6-dioxopiperidin-3-yl)-6,7-dihydropyrrolo[3,4-f]isoindole-1,3(2H,5H)-dione] |
| A (“A”: <10 nM) | C[C@@H]1Cc2c([nH]c3ccccc23)[C@@H](c2c(F)cc(N3CC4(CC(C(=O)N5CCC(N6Cc7cc8c(cc7C6)C(=O)N(C6CCC(=O)NC6=O)C8=O)CC5)C4)C3)cc2F)N1CC(F)F (stereo partly drawn) [Compound B56, 6-(1-(2-(4-((1R,3R)-2-(2,2-difluoroethyl)-3-methyl-2,3,4,9-tetrahydro-1H-pyrido[3,4-b]indol-1-yl)-3,5-difluorophenyl)-2-azaspiro[3.3]heptane-6-carbonyl)piperidin-4-yl)-2-(2,6-dioxopiperidin-3-yl)-6,7-dihydropyrrolo[3,4-f]isoindole-1,3(2H,5H)-dione] |
| A (“A”: <10 nM) | C[C@@H]1Cc2c([nH]c3ccccc23)[C@@H](c2cnc(N3CCC(C(=O)N4CCC(N5Cc6cc7c(cc6C5)C(=O)N(C5CCC(=O)NC5=O)C7=O)CC4)CC3)nc2)N1CC(F)F (stereo partly drawn) [Compound B222, 6-(1-(1-(5-((1R,3R)-2-(2,2-difluoroethyl)-3-methyl-2,3,4,9-tetrahydro-1H-pyrido[3,4-b]indol-1-yl)pyrimidin-2-yl)piperidine-4-carbonyl)piperidin-4-yl)-2-(2,6-dioxopiperidin-3-yl)-6,7-dihydropyrrolo[3,4-f]isoindole-1,3(2H,5H)-dione] |
| C (“C”: >100 nM) | C[C@@H]1Cc2c([nH]c3ccccc23)[C@@H](c2ccc(C3=CCC(C(=O)N4CCC(N5Cc6cc7c(cc6C5)C(=O)N(C5CCC(=O)NC5=O)C7=O)CC4)CC3)cc2F)N1CC1(F)CC1 (stereo partly drawn) [Compound B250, 2-(2,6-dioxopiperidin-3-yl)-6-(1-(3′-fluoro-4′-((1R,3R)-2-((1-fluorocyclopropyl)methyl)-3-methyl-2,3,4,9-tetrahydro-1H-pyrido[3,4-b]indol-1-yl)-2,3,4,5-tetrahydro-[1,1′-biphenyl]-4-carbonyl)piperidin-4-yl)-6,7-dihydropyrrolo[3,4-f]isoindole-1,3(2H,5H)-dione] |
| B (“B”: 10-100 nM) | C[C@@H]1Cc2c([nH]c3ccccc23)[C@@H](c2c(F)cc(C3=CCC4(CC3)CCN(C(=O)CN3Cc5cc6c(cc5C3)C(=O)N(C3CCC(=O)NC3=O)C6=O)CC4)cc2F)N1CC(F)F (stereo partly drawn) [Compound B240, 6-(2-(9-(4-((1R,3R)-2-(2,2-difluoroethyl)-3-methyl-2,3,4,9-tetrahydro-1H-pyrido[3,4-b]indol-1-yl)-3,5-difluorophenyl)-3-azaspiro[5.5]undec-8-en-3-yl)-2-oxoethyl)-2-(2,6-dioxopiperidin-3-yl)-6,7-dihydropyrrolo[3,4-f]isoindole-1,3(2H,5H)-dione] |
| C (“C”: >100 nM) | C[C@@H]1Cc2c([nH]c3ccccc23)[C@@H](c2ccc(C3=CCC(C(=O)N4CCC(N5Cc6cc7c(cc6C5)C(=O)N(C5CCC(=O)NC5=O)C7=O)CC4)CC3)cc2F)N1CC(C)(F)F (stereo partly drawn) [Compound B246, 6-(1-(4′-((1R,3R)-2-(2,2-difluoropropyl)-3-methyl-2,3,4,9-tetrahydro-1H-pyrido[3,4-b]indol-1-yl)-3′-fluoro-2,3,4,5-tetrahydro-[1,1′-biphenyl]-4-carbonyl)piperidin-4-yl)-2-(2,6-dioxopiperidin-3-yl)-6,7-dihydropyrrolo[3,4-f]isoindole-1,3(2H,5H)-dione] |
| C (“C”: >100 nM) | C[C@@H]1Cc2c([nH]c3ccccc23)[C@@H](c2c(F)cc(N3CC(C(=O)N4CCC(CN5Cc6cc7c(cc6C5)C(=O)N(C5CCC(=O)NC5=O)C7=O)CC4)C3)cc2F)N1CC(F)F (stereo partly drawn) [Compound B210, 6-((1-(1-(4-((1R,3R)-2-(2,2-difluoroethyl)-3-methyl-2,3,4,9-tetrahydro-1H-pyrido[3,4-b]indol-1-yl)-3,5-difluorophenyl)azetidine-3-carbonyl)piperidin-4-yl)methyl)-2-(2,6-dioxopiperidin-3-yl)-6,7-dihydropyrrolo[3,4-f]isoindole-1,3(2H,5H)-dione] |
| C (“C”: >100 nM) | C[C@@H]1Cc2c([nH]c3ccccc23)[C@@H](c2cnc(N3CC4(CCC(CN5Cc6cc7c(cc6C5)C(=O)N(C5CCC(=O)NC5=O)C7=O)CC4)C3)nc2)N1CC(F)F (stereo partly drawn) [Compound B185, 6-((2-(5-((1R,3R)-2-(2,2-difluoroethyl)-3-methyl-2,3,4,9-tetrahydro-1H-pyrido[3,4-b]indol-1-yl)pyrimidin-2-yl)-2-azaspiro[3.5]nonan-7-yl)methyl)-2-(2,6-dioxopiperidin-3-yl)-6,7-dihydropyrrolo[3,4-f]isoindole-1,3(2H,5H)-dione] |
